This is an account of results in the supplement of paper PMC9265050, “Inhibition of RNA Binding in SND1 Increases the Levels of miR-1-3p and Sensitizes Cancer Cells to Navitoclax” (Cancers, 2022).

Structures are written as SMILES.

The experiment deals with SW480. The experiment can be described thus: drug sensitivity score (DSS, integrated dose-response area); higher = more sensitive (stronger viability reduction); extreme values may be limits of the assay. Put shortly:
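SW480 cells stably carrying doxycycline-inducible control or SND1-targeting shRNA were treated with 0.1 µg/mL doxycycline for 7 days. Cells were then seeded at 1000 per well into 384-well plates containing 525 commercially available small-molecule inhibitors at five concentrations, and viability was measured with CellTiter-Glo after 72 h. The drug sensitivity score integrates the area under a fitted non-linear dose–response model.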

[1] abbreviates: shRNA: SND1 shRNA1 (SND1 silenced).
The mark [2] stands for this setting: shRNA: SND1 shRNA2 (SND1 silenced).
Where [3] appears, read: shRNA: control shRNA (non-targeting).

Take `COc1ccc(-c2ccc3c(N4CCOC[C@@H]4C)nc(N4CCOC[C@@H]4C)nc3n2)cc1CO` [AZD8055]: the drug sensitivity score came to 20.6 DSS under setting [1], 19.2 DSS under setting [2] and 14.9 DSS under setting [3].

Take `N#Cc1ccc2[nH]c(O)c(-c3ccc(CN4CCOCC4)cn3)c2c1` [AZD-1080]: the drug sensitivity score was 1.3 DSS under setting [1] and 1.1 DSS under setting [3].

In the case of `Cc1ncc(-c2ccnc(Nc3ccc(S(C)(=O)=O)cc3)n2)n1C(C)C` [AZD-5438], the drug sensitivity score under setting [1] came to 11.8 DSS and the drug sensitivity score under setting [3] came to 12.7 DSS.

Take `Cc1cc([C@@H](C)Nc2ccccc2C(=O)O)c2nc(N3CCOCC3)cc(=O)n2c1` [AZD-6482]: the drug sensitivity score is, setting by setting: under setting [1], 0 DSS; under setting [2], 4.3 DSS; under setting [3], 3 DSS.

For `C[C@@H](Nc1cc(F)cc(F)c1)c1cc(C(=O)N(C)C)cc2c(=O)cc(N3CCOCC3)oc12` [AZD-8186], the drug sensitivity score runs as follows: under setting [1], 0 DSS; under setting [2], 0 DSS; under setting [3], 0 DSS.

For `Cc1cc(C(=O)NOCCO)c(Nc2ccc(I)cc2F)n(C)c1=O` [AZD-8330], the drug sensitivity score turned out to be 32.4 DSS under setting [1], 22.9 DSS under setting [2] and 18.4 DSS under setting [3].

As for `CCN1CCN(Cc2ccc(Nc3ncc(F)c(-c4cc(F)c5nc(C)n(C(C)C)c5c4)n3)nc2)CC1` [Abemaciclib], the drug sensitivity score by setting is: under setting [1], 4 DSS; under setting [2], 0.2 DSS; under setting [3], 4.1 DSS.

On to `CN(C)Cc1c(C(=O)NCCOc2ccc(C(=O)NO)cc2)oc2ccccc12` [Abexinostat], for which the drug sensitivity score is, setting by setting: under setting [1], 21.3 DSS; under setting [2], 16.4 DSS; under setting [3], 19.4 DSS.

`C[C@]12CC[C@H](O)CC1=CC[C@@H]1[C@@H]2CC[C@]2(C)C(c3cccnc3)=CC[C@@H]12` [Abiraterone]: the drug sensitivity score runs as follows: under setting [1], 0 DSS; under setting [2], 0 DSS; under setting [3], 0 DSS.

`CN(C)C/C=C/C(=O)Nc1cc2c(Nc3ccc(F)c(Cl)c3)ncnc2cc1O[C@H]1CCOC1` [Afatinib]: the drug sensitivity score was 2.1 DSS under setting [1], 1.8 DSS under setting [2] and 1.2 DSS under setting [3].

For `Cn1ncc(Cl)c1-c1cc(C(=O)N[C@H](CN)Cc2cccc(F)c2)sc1Cl` [Afuresertib], the drug sensitivity score worked out at 0 DSS under setting [1], 2 DSS under setting [2] and 0 DSS under setting [3].

As to `COc1cccc2c1C(=O)c1c(O)c3c(c(O)c1C2=O)C[C@@](O)(/C(CO)=N/NC(=O)CCCCCN1C(=O)C=CC1=O)C[C@@H]3O[C@H]1C[C@H](N)[C@H](O)[C@H](C)O1` [Aldoxorubicin], the drug sensitivity score under setting [1] was 7.5 DSS, the drug sensitivity score under setting [2] was 5.7 DSS and the drug sensitivity score under setting [3] worked out at 8.4 DSS.

Turning to `CCc1cc2c(cc1N1CCC(N3CCOCC3)CC1)C(C)(C)c1[nH]c3cc(C#N)ccc3c1C2=O` [Alectinib], the drug sensitivity score is, setting by setting: under setting [1], 0 DSS; under setting [2], 0 DSS; under setting [3], 0 DSS.

As to `COc1cc(Nc2ncc3c(n2)-c2ccc(Cl)cc2C(c2c(F)cccc2OC)=NC3)ccc1C(=O)O` [Alisertib], the drug sensitivity score was found to be 12.6 DSS under setting [1], 4.4 DSS under setting [2] and 6.5 DSS under setting [3].

On to `Oc1ncnc2[nH]ncc12` [Allopurinol], for which the drug sensitivity score reads like this: under setting [1], 0.2 DSS; under setting [2], 0 DSS; under setting [3], 1.2 DSS.

`Cc1nc(NC(=O)N2CCC[C@H]2C(N)=O)sc1-c1ccnc(C(C)(C)C(F)(F)F)c1` [Alpelisib]: the drug sensitivity score is 2.8 DSS under setting [1], 5.2 DSS under setting [2] and 4.3 DSS under setting [3].

As to `CN(C)c1nc(N(C)C)nc(N(C)C)n1` [Altretamine], the drug sensitivity score runs as follows: under setting [1], 0 DSS; under setting [2], 0 DSS; under setting [3], 0 DSS.

Turning to `CO[C@H]1/C=C\C=C(/C)C(=O)NC2=CC(=O)C(NCCN(C)C)=C(C[C@@H](C)C[C@H](OC)[C@H](O)[C@@H](C)/C=C(\C)[C@@H]1OC(N)=O)C2=O` [Alvespimycin], the drug sensitivity score is, setting by setting: under setting [1], 7 DSS; under setting [2], 6 DSS; under setting [3], 7.9 DSS.

Consider `CN1CC[C@H](c2c(O)cc(O)c3c(=O)cc(-c4ccccc4Cl)oc23)[C@H](O)C1` [Alvocidib], for which the drug sensitivity score reads like this: under setting [1], 21.9 DSS; under setting [2], 20.3 DSS; under setting [3], 20.4 DSS.

As for `CCC1(c2ccc(N)cc2)CCC(=O)NC1=O` (configuration not stated) [Aminoglutethimide], the drug sensitivity score stood at 0 DSS under setting [1], 0 DSS under setting [2] and 0 DSS under setting [3].

In the case of `CN(C)CCN1C(=O)c2cccc3cc(N)cc(c23)C1=O` [Amonafide], the drug sensitivity score under setting [1] amounted to 8.8 DSS, the drug sensitivity score under setting [2] is 5.2 DSS and the drug sensitivity score under setting [3] was 7.8 DSS.

Consider `COc1cc(NS(C)(=O)=O)ccc1Nc1c2ccccc2nc2ccccc12` [Amsacrine], for which the drug sensitivity score under setting [1] is 8.6 DSS, the drug sensitivity score under setting [2] was determined as 3.7 DSS and the drug sensitivity score under setting [3] was 7 DSS.

For the compound `S=C(NCc1ccc2c(c1)OCO2)N1CCN(c2ncnc3c2oc2ccccc23)CC1` [Amuvatinib], the drug sensitivity score amounted to 3.9 DSS under setting [1], 6.4 DSS under setting [2] and 6.7 DSS under setting [3].

As to `O=C1CN2Cc3c(ccc(Cl)c3Cl)N=C2N1` [Anagrelide], the drug sensitivity score amounted to 0 DSS under setting [1], 0 DSS under setting [2] and 0 DSS under setting [3].

Consider `CC(C)(C#N)c1cc(Cn2cncn2)cc(C(C)(C)C#N)c1` [Anastrozole], for which the drug sensitivity score reads like this: under setting [1], 0 DSS; under setting [2], 0 DSS; under setting [3], 0 DSS.

For the compound `N#CC1(c2ccc(NC(=O)c3cccnc3NCc3ccncc3)cc2)CCCC1` [Apatinib], the drug sensitivity score worked out at 0 DSS under setting [1], 0 DSS under setting [2] and 0 DSS under setting [3].

Regarding `Cc1c(CN2CCN(C(=O)[C@H](C)O)CC2)sc2c(N3CCOCC3)nc(-c3cnc(N)nc3)nc12` [Apitolisib], the drug sensitivity score runs as follows: under setting [1], 11 DSS; under setting [2], 9.3 DSS; under setting [3], 6.6 DSS.

With `CC(C)c1c(C(=O)Nc2ccccc2)c(-c2ccccc2)c(-c2ccc(F)cc2)n1CC[C@@H](O)C[C@@H](O)CC(=O)O` [Atorvastatin], the drug sensitivity score reads like this: under setting [1], 4.9 DSS; under setting [3], 7.6 DSS.

For the compound `CC(=O)OC[C@H]1O[C@@H]([S-])[C@H](OC(C)=O)[C@@H](OC(C)=O)[C@@H]1OC(C)=O.CCP(CC)CC.[Au+]` [Auranofin], the drug sensitivity score under setting [1] is 6.2 DSS, the drug sensitivity score under setting [2] was determined as 8.8 DSS and the drug sensitivity score under setting [3] was found to be 8.7 DSS.

In the case of `CNC(=O)c1ccccc1Sc1ccc2c(/C=C/c3ccccn3)n[nH]c2c1` [Axitinib], the drug sensitivity score by setting is: under setting [1], 6 DSS; under setting [2], 2.8 DSS; under setting [3], 5.4 DSS.

In turn, `Nc1ncn([C@@H]2O[C@H](CO)[C@@H](O)[C@H]2O)c(=O)n1` [Azacitidine] registered a drug sensitivity score under setting [1] of 3.7 DSS, a drug sensitivity score under setting [2] of 4.4 DSS and a drug sensitivity score under setting [3] of 2.9 DSS.

On to `Cc1cc(-c2nc(-c3ccc(OC(F)(F)F)cc3)no2)nn1Cc1ccnc(N2CCN(C3CC3)CC2)c1` [BAY 87-2243], for which the drug sensitivity score by setting is: under setting [1], 0.3 DSS; under setting [2], 21.9 DSS; under setting [3], 1.1 DSS.

For the compound `Nc1nc(Nc2ccc3c(c2)CC[C@@H](N2CCCC2)CC3)nn1-c1cc2c(nn1)-c1ccccc1CCC2` [BGB324], the drug sensitivity score amounted to 9 DSS under setting [1], 5.9 DSS under setting [2] and 9.6 DSS under setting [3].

Regarding `CC[C@@H]1C(=O)N(C)c2cnc(Nc3ccc(C(=O)NC4CCN(C)CC4)cc3OC)nc2N1C1CCCC1` [BI 2536], the drug sensitivity score under setting [1] was found to be 16.8 DSS, the drug sensitivity score under setting [2] was 18.5 DSS and the drug sensitivity score under setting [3] worked out at 19.9 DSS.

As to `COc1c(C)cnc(Cn2cnc3c(Cl)nc(N)nc32)c1C` [BIIB021], the drug sensitivity score runs as follows: under setting [1], 17.4 DSS; under setting [2], 18.4 DSS; under setting [3], 17.8 DSS.

With `O=C(Nc1cccc(Nc2ncc(Br)c(NCCc3cnc[nH]3)n2)c1)N1CCCC1` [BX-912], the drug sensitivity score came to 6.7 DSS under setting [1], 6.5 DSS under setting [2] and 8.5 DSS under setting [3].

As to `Cc1ccc(NC(=O)c2ccc(CN3CC[C@H](N(C)C)C3)c(C(F)(F)F)c2)cc1Nc1nccc(-c2cncnc2)n1` [Bafetinib], the drug sensitivity score was found to be 0.3 DSS under setting [1], 0 DSS under setting [2] and 0 DSS under setting [3].

In the case of `CCS(=O)(=O)N1CC(CC#N)(n2cc(-c3ncnc4[nH]ccc34)cn2)C1` [Baricitinib], the drug sensitivity score by setting is: under setting [1], 0 DSS; under setting [2], 0.3 DSS; under setting [3], 1 DSS.

Take `O=C(/C=C/c1cccc(S(=O)(=O)Nc2ccccc2)c1)NO` [Belinostat]: the drug sensitivity score runs as follows: under setting [1], 16.4 DSS; under setting [2], 13.8 DSS; under setting [3], 12.7 DSS.

In the case of `Cn1c(CCCC(=O)O)nc2cc(N(CCCl)CCCl)ccc21` [Bendamustine], the drug sensitivity score by setting is: under setting [1], 1.7 DSS; under setting [2], 0.5 DSS; under setting [3], 3.5 DSS.

In the case of `N#CC(c1ccnc(OCc2ccc(CN3CCOCC3)cc2)n1)c1nc2ccccc2s1` (configuration not stated) [Bentamapimod], the drug sensitivity score is 2.3 DSS under setting [1] and 4 DSS under setting [3].

`C=C(c1ccc(C(=O)O)cc1)c1cc2c(cc1C)C(C)(C)CCC2(C)C` [Bexarotene]: the drug sensitivity score reads like this: under setting [1], 0 DSS; under setting [2], 0 DSS; under setting [3], 0 DSS.
